According to paper PMC6628648, “Enabling microbial syringol conversion through structure-guided protein engineering” (Proceedings of the National Academy of Sciences of the …, 2019):
Like-named read-outs stand apart in the source and are kept apart here.

Columns and labels:
WT GcoA = target: T1, WT GcoA (Amycolatopsis sp., UniProt P0DPQ7); test: biochemical; type: binding, Amycolatopsis sp. ATCC 39116; details: for %Fe(III) spin state conversion: WT GcoA, final high-spin (388 nm) divided by starting low-spin (417 nm)
T1 construct: GST (N, cleaved yes); made in house; host or cells: E. coli Rosetta 2 (DE3)

GcoA variant F169S = target: T2, GcoA variant F169S (Amycolatopsis sp., UniProt P0DPQ7, F169S); test: NADH consumption assay (specific activity) with GcoB; type: biochemical, Amycolatopsis sp. ATCC 39116; details: saturating (200 µM) substrate, pH 7.5, 25°C
T2 construct: GST (N, cleaved yes); made in house; host or cells: E. coli Rosetta 2 (DE3)

GcoA variant F169V = target: T3, GcoA variant F169V (Amycolatopsis sp., UniProt P0DPQ7, F169V); test: as above; type: biochemical, Amycolatopsis sp. ATCC 39116; details: saturating (200 µM) substrate, pH 7.5, 25°C
T3 construct: GST (N, cleaved yes); made in house; host or cells: E. coli Rosetta 2 (DE3)

GcoA variant F169I = target: T4, GcoA variant F169I (Amycolatopsis sp., UniProt P0DPQ7, F169I); test: as above; type: biochemical, Amycolatopsis sp. ATCC 39116; details: saturating (200 µM) substrate, pH 7.5, 25°C
T4 construct: GST (N, cleaved yes); made in house; host or cells: E. coli Rosetta 2 (DE3)

GcoA-F169A = GcoA-F169A (Amycolatopsis sp., UniProt P0DPQ7, F169A); test: Substrate dissociation constant by ferric spin-state (UV/vis) titration; type: binding, Amycolatopsis sp. ATCC 39116; parameters: GST (N, cleaved yes); made in house; host or cells: E. coli Rosetta 2 (DE3)
Protocol: The equilibrium binding constant, KD, for GcoA-F169A and guaiacol, syringol, and 3MC was determined as described previously ([28]) and detailed in SI Appendix. […]
vi = Vmax[S]/(KM + [S]) (4)
Determination of substrate dissociation constants (KD) with F169A. 0-60 µM of guaiacol, syringol, or 3MC in 0.5 or 1 µM aliquots, were titrated into a cuvette containing 3 µM F169A GcoA in 25 mM HEPES, 50 mM NaCl, pH 7.5. The spectrum after each substrate addition was recorded, beginning with no substrate bound. The solution reached equilibrium before the next addition. A difference spectrum was made to illustrate the shift from a low-spin aquo-heme complex to the high-spin substrate-bound complex (spectral […]
shift from 417 nm to 388 nm). […] The absorbance […]
at 388 nm (Abs388-417 nm) was plotted as a function of [substrate], yielding a quadratic curve that was fit to equation (5) to determine […]
Δ Absobs = Δ Absmax2Et(L0 + Et + KD − √(L0 + Et + Kd)2 − 4Et ∗ L0) (5)
Where L0, Et, KD, and ΔAbsmax are the ligand concentrations, total protein (subunit) concentration, the equilibrium dissociation constant, and the maximum Abs388-417 nm, respectively. Reported values are the average of 2 or more measurements.
Formaldehyde determination. A colorimetric assay using tryptophan can be used to quantify the amount of formaldehyde produced in F169 GcoA/B reactions with guaiacol, syringol, or 3MC. 0.2 µM each of F169 GcoA mutants and GcoB were dissolved in air-saturated buffer (25 mM HEPES, 50 mM NaCl) in a cuvette at pH 7.5, 25 °C. 100 µg/mL catalase was added to each reaction to capture any H2O2 formed during the uncoupled reaction. 200 μM NADH was added and the background rate recorded. 100 (guaiacol, syringol, or 3MC) or 200 (syringol) μM of substrate was then added and the reaction monitored until there was no more change, due to either substrate, NADH or O2 depletion, whichever occurred first. […] After cooling, the absorbance was read at 575 nm and the [formaldehyde] calculated by using ε575 nm = 4.2 mM-1 cm-1, obtained with formaldehyde as a standard (1). […]

T1 sequence (P0DPQ7 whole entry): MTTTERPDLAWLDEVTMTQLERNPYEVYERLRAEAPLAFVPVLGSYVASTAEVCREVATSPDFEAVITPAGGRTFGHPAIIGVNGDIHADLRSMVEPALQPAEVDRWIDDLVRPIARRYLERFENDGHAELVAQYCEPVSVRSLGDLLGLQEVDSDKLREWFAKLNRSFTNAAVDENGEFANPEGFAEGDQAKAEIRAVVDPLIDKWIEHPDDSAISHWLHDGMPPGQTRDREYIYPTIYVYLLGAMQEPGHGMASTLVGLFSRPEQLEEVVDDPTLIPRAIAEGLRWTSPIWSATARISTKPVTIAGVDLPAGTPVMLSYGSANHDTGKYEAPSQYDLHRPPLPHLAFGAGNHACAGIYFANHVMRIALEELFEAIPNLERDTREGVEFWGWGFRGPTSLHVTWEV
T2 sequence (P0DPQ7 whole entry F169S): as the sequence (P0DPQ7 whole entry) above, with F169S counted along it
GcoA-F169A, sequence (P0DPQ7 whole entry F169A): as the sequence (P0DPQ7 whole entry) above, with F169A counted along it
T3 sequence (P0DPQ7 whole entry F169V): as the sequence (P0DPQ7 whole entry) above, with F169V counted along it
T4 sequence (P0DPQ7 whole entry F169I): as the sequence (P0DPQ7 whole entry) above, with F169I counted along it

COc1ccccc1O [guaiacol, 2-methoxyphenol]
Kd (WT GcoA): 0.0065 ± 0.002 µM | %Fe(III) spin state conversion (WT GcoA): 87 ± 1% | Specific activity (GcoA variant F169S): 5.7 ± 0.8 μmol sec-1 μmol-1 GcoA | Specific activity (GcoA variant F169V): 5.3 ± 0.2 μmol sec-1 μmol-1 GcoA | Specific activity (GcoA variant F169I): 1.4 ± 0.2 μmol sec-1 μmol-1 GcoA | Kd (GcoA-F169A): 7.1 ± 0.1 µM

COc1cccc(O)c1O [3MC, 3-methoxycatechol]
%Fe(III) spin state conversion (WT GcoA): 62 ± 0.01% | Specific activity (GcoA variant F169S): 6.0 ± 0.8 μmol sec-1 μmol-1 GcoA | Specific activity (GcoA variant F169V): 5.7 ± 0.3 μmol sec-1 μmol-1 GcoA | Specific activity (GcoA variant F169I): 1.1 ± 0.7 μmol sec-1 μmol-1 GcoA | Kd (GcoA-F169A; GcoA-F169A, air-saturated 25 mM Hepes, 50 mM NaCl, pH 7.5, 25 °C, low-spin (417 nm) to high-spin (388 nm) change): 9.5 ± 0.2 µM

COc1cccc(OC)c1O [syringol, 2,6-dimethoxyphenol]
%Fe(III) spin state conversion (WT GcoA): 56 ± 2% | Specific activity (GcoA variant F169S): 5.1 ± 0.9 μmol sec-1 μmol-1 GcoA | Specific activity (GcoA variant F169V): 4.1 ± 0.8 μmol sec-1 μmol-1 GcoA | Specific activity (GcoA variant F169I): 0.56 ± 0.2 μmol sec-1 μmol-1 GcoA | Kd (GcoA-F169A): 1.7 ± 0.07 µM
